Measured values taken from ChEMBL document CHEMBL4765225, “A peptide inhibitor of antibody-dependent cell-mediated cytotoxicity against EGFR/folate receptor-alpha double positive cells” (Medchemcomm, 2018).
The source made the active and inactive calls. The calls are words filed in the database; no cut-off is given here.

Assays:
A549 = assay: Induction of EGFR antibody accumulation on human A549 cell surface assessed as ternary complex formation by fluorescence microscopy; type: functional, tissue-based
IGROV-1 [1] = assay: Induction of CD20 antibody accumulation on human IGROV1 cell surface assessed as ternary complex formation by fluorescence microscopy; type: functional
IGROV-1 [2] = assay: Induction of CD20 antibody recruitment on human IGROV1 cell surface assessed as ternary complex formation by fluorescence microscopy; type: functional
IGROV-1 [3] = assay: Induction of EGFR antibody accumulation on human IGROV1 cell surface assessed as ternary complex formation in presence of excess folate by fluorescence microscopy; type: functional, tissue-based
IGROV-1 [4] = assay: Induction of CD20 antibody accumulation on human IGROV1 cell surface assessed as ternary complex formation in presence of excess folate by fluorescence microscopy; type: functional, tissue-based
IGROV-1 [5] = assay: Induction of CD20 antibody recruitment on human IGROV1 cell surface by flow cytometry analysis; type: functional, tissue-based
[6] = Inhibition of antibody-dependent cell-mediated cytotoxicity in human IGROV1 cells incubated for 10 mins followed by addition of KHYG-1/FC-gamma-3A-158V by LDH assay; type: functional, cell-based; conditions: IGROV-1, 10 min
IGROV-1 [7] = assay: Induction of EGFR antibody accumulation on human IGROV1 cell surface assessed as ternary complex formation by fluorescence microscopy; type: functional

SMILES: CC(C)C[C@@H]1NC(=O)[C@H](Cc2c[nH]cn2)NC(=O)[C@H](Cc2c[nH]c3ccccc23)NC(=O)[C@H](C)NC(=O)[C@@H](NC(=O)[C@H](CC(=O)O)NC(=O)CCOCCOCCOCCOCCOCCOCCNC(=O)C(CCCCNC(=O)c2ccc(-c3c4ccc(=[N+](C)C)cc-4oc4cc(N(C)C)ccc34)c(C(=O)[O-])c2)NC(=O)CCC(NC(=O)c2ccc(NCc3cnc4[nH]c(N)nc(=O)c4n3)cc2)C(=O)O)CSSC[C@@H](C(=O)N[C@H](C(N)=O)[C@@H](C)O)NC(=O)[C@H](Cc2c[nH]c3ccccc23)NC(=O)[C@H](C(C)C)NC(=O)[C@H](CC(C)C)NC(=O)[C@H](CCC(=O)O)NC(=O)CNC1=O (some centres undefined)
- Activity (A549): inactive
- Activity (IGROV-1 [1]): Active
- Activity (IGROV-1 [2]): Active

SMILES: CC(C)C[C@@H]1NC(=O)[C@H](Cc2c[nH]cn2)NC(=O)[C@H](Cc2c[nH]c3ccccc23)NC(=O)[C@H](C)NC(=O)[C@@H](NC(=O)[C@H](CC(=O)O)NC(=O)CCOCCOCCOCCOCCOCCOCCNC(=O)CCC(NC(=O)c2ccc(NCc3cnc4[nH]c(N)nc(=O)c4n3)cc2)C(=O)O)CSSC[C@@H](C(=O)N[C@H](C(N)=O)[C@@H](C)O)NC(=O)[C@H](Cc2c[nH]c3ccccc23)NC(=O)[C@H](C(C)C)NC(=O)[C@H](CC(C)C)NC(=O)[C@H](CCC(=O)O)NC(=O)CNC1=O (some centres undefined)
- Activity (A549): inactive
- Activity (IGROV-1 [3]): inactive
- Activity (IGROV-1 [4]): inactive
- Activity (IGROV-1 [5]): Active
- IC50 [6]: 400 pM
- Activity (IGROV-1 [7]): Active
